For eight molecules, Dmax and DC50 results are on record in patent US20250206732A1, “COMPOUNDS AND METHODS FOR THE TARGETED DEGRADATION OF KRAS” (Arvinas Operations, Inc., priority 2022, published 2025).

Bounds are passed on as bounds.

Test [1] addresses T1, AsPC-1 HiBiT-KRASG12D (Homo sapiens, UniProt P01116, G12D).
T1 construct: insert the HiBiT tag onto the N-terminus of one or more of the endogenous KRAS alleles; endogenous in cells; host or cells: AsPC-1 (ATCC CRL-1682), CRISPR-Cas9 knock-in clone, one tagged allele
In words: HiBiT degradation assay (G12D), AsPC-1 HiBiT-KRASG12D cells. To be noted: 24 hours treatment; for Dmax: ASPC1, AsPC-1 HiBiT-KRASG12D cells, maximum degradation observed; for DC50: AsPC-1 HiBiT-KRASG12D cells, HiBiT luminescence. The class given is cell-based. The essentials:
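AsPC-1 cells carried a CRISPR knock-in of an N-terminal HiBiT tag on endogenous KRAS G12D. After 24 h compound treatment at 37 °C (triplicate), viability was read by alamar blue (4 h, fluorescence, normalized to DMSO). HiBiT-KRAS levels were then measured by Nano-Glo HiBiT lytic luminescence after 45 min at room temperature.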
For orientation: The HiBiT peptide binds its large partner to form an active luciferase.

In test [2] the target is T2, SW1573 HiBiT-KRASG12C (Homo sapiens, UniProt P01116, G12C).
T2 construct: expressed in transfected cells
In words: HiBiT degradation assay (G12C), SW1573 HiBiT-KRASG12C cells.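 On DC50: Letter grades: C is 1000 to 3000 nM and D is above 3000 nM.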 To be noted: 24 hours treatment; for DC50: HiBiT luminescence; for Dmax: maximum degradation observed. It counts as cell-based. Here is the method:
Reagents. SW1573 (CRL-2170), AsPC-1 (CRL-1682), and SW620 (CCL-227) cells were purchased from ATCC. SW1573 cells are homozygous for the G12C mutation in KRAS, AsPC-1 cells are homozygous for the G12D mutation, and SW620 cells are homozygous for the G12V mutation. SW1573 cells were cultured in DMEM+F12+Glutamax (+Sodium Bicarbonate, +sodium pyruvate, ThermoFisher scientific, #10565) supplemented with 10% FBS (ThermoFisher scientific, #2060357) and 1% Antibiotic-Antimycotic (ThermoFisher scientific, #15240096). AsPC-1 cells were cultured in GIBCO RPMI-1640 (ThermoFisher scientific, catalog #61870-036 with Glutamax, No HEPES, No Na Pyruvate) supplemented with 10% FBS (ThermoFisher scientific, catalog #2060357) and 1× Penicillin-Streptomycin (ThermoFisher scientific, catalog #15140122, 10000 U/ml, 100×). SW620 cells were cultured in DMEM Glutamax (ThermoFisher scientific, catalog #10566016) supplemented with 10% FBS (ThermoFisher scientific, catalog #2060357) and 1× Penicillin-Streptomycin (ThermoFisher scientific, catalog #15140122, 10000 U/ml, 100×). For degradation assays, 384 well plates were used. Alamar blue was purchased from ThermoFisher scientific (A50101) and used according to manufacturer instructions. The Nano-Glo® HiBiT Lytic Detection System and Nano-Glo® HiBiT Blotting System were purchased from Promega (#N3050 and #N2410) and used according to manufacturer instructions.
HiBiT-tagged cell line generation. To create the SW1573 HiBiT-KRASG12C cell line, the nucleotide sequence encoding the 11 amino acid HiBiT tag from Promegal was appended to the N-terminus of the KRASG12C coding sequence. This synthesized DNA was cloned into a modified pcDNA3.1 vector under the control of the thymidine kinase (TK) promoter. This HiBiT-KRASG12C expressing plasmid was transfected into parental SW1573 cells and colonies were selected using 400 μg/mL zeocin. The resulting clonal lines were screened for expression of HiBiT-KRASG12C protein using Nano-Glo® HiBiT Blotting System. A luminescent band of the correct size for HiBiT-KRASG12C was detected in several clones. Clone E6 was selected for further studies.
HiBiT degradation assays (G12C and G12D). Either SW1573 HiBiT-KRasG12C or AsPC-1 HiBiT-KRasG12D cells were plated at 9000 or 15,000 cells/well in a 384 well plate (Corning #3770). Compounds of the present disclosure and positive controls were diluted in the appropriate cell media and applied to the plated cells resulting in a final concentration titration of 10 μM to 508 pM in 0.5% DMSO. Gambogic acid was used as a positive control for cytotoxicity and titrated from 10 μM to 78 nM. All assays were performed in triplicate. Cells were treated with compounds for 24 hours at 37° C. in an incubator containing 5% CO2. Following treatment, alamar blue was used to determine if any compounds led to a loss in cell viability after 24 hours. The 10× alamar blue reagent was added to a final concentration of 1× as recommended by the manufacturer and cells were returned to the incubator for 4 hours. Plates were then allowed to equilibrate to room temperature and fluorescence was measured using a Perkin-Elmer EnVision. After completion of the fluorescence read, the liquid from each well was removed and the cells were washed with PBS. The Nano-Glo® HiBiT detection reagent was prepared according to the manufacturer's instructions and added to each well after the PBS wash was removed. Following incubation at room temperature for 45 minutes, the luminescence was read using the ultra-sensitive luminescence aperture on the Envision instrument.
Data analysis. Fluorescence values from the alamar blue treatment were normalized to the DMSO-only control for each compound titration. […]

T2 sequence (P01116 1-188 isoform P01116-2 G12C): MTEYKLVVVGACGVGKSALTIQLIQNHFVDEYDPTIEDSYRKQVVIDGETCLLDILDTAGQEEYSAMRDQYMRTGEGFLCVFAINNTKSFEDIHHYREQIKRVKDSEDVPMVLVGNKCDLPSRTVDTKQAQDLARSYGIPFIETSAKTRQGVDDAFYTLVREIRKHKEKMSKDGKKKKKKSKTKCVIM
T1 sequence (P01116 1-188 isoform P01116-2 G12D): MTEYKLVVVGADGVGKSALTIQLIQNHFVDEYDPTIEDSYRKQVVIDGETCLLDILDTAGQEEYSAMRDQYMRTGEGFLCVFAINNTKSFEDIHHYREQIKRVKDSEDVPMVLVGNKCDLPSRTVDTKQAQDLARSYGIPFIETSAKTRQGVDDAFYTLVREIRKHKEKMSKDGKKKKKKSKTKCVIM

What is called Dmax is the greatest extent of degradation seen. Lower therefore signals a partial loss of target. As a reminder, the DC50 is the midpoint of the concentration-degradation curve. A higher DC50 goes with degradation only at high concentration. In test [1], `CCc1cccc2cc(O)cc(-c3ncc4c(N5CC6CCC(C5)N6)nc(OCCN5CCC(OCC(=O)N[C@H](C(=O)N6C[C@H](O)C[C@H]6C(=O)N[C@@H](C)c6ccc(-c7scnc7C)cc6)C(C)(C)C)CC5)nc4c3F)c12` [Compound 12, (2S,4R)-1-[(2S)-2-[[2-[[1-[2-[4-(3,8-diazabicyclo[3.2.1]octan-3-yl)-7-(8-ethyl-3-hydroxy-1-naphthyl)-8-fluoro-pyrido[4,3-d]pyrimidin-2-yl]oxyethyl]-4-piperidyl]oxy]acetyl]amino]-3,3-dimethyl-butanoyl]-4-hydroxy-N-[(1S)-1-[4-(4-methylthiazol-5-yl)phenyl]ethyl]pyrrolidine-2-carboxamide] gave a Dmax of 80 to 100% and a DC50 of 1000 to 3000 nM. Further, the 50% degradation concentration (DC50) in test [2] is above 3000 nM.

In test [1], `CCc1cccc2cc(O)cc(-c3ncc4c(N5CCCCCC5)nc(OC[C@@]56CCCN5[C@H](COC(=O)N5CCN(c7cc([C@H](C(=O)N8C[C@H](O)C[C@H]8C(=O)N[C@@H](C)c8ccc(-c9scnc9C)cc8)C(C)C)on7)CC5)CC6)nc4c3F)c12` [Compound 42, [(3S,7aS)-7a-({[4-(azepan-1-yl)-7-(8-ethyl-3-hydroxynaphthalen-1-yl)-8-fluoropyrido[4,3-d]pyrimidin-2-yl]oxy}methyl)-hexahydro-1H-pyrrolizin-3-yl]methyl 4-{5-[(2R)-1-[(2S,4R)-4-hydroxy-2-{[(1S)-1-[4-(4-methyl-1,3-thiazol-5-yl)phenyl]ethyl]carbamoyl}pyrrolidin-1-yl]-3-methyl-1-oxobutan-2-yl]-1,2-oxazol-3-yl}piperazine-1-carboxylate] had a Dmax of 80 to 100% and a DC50 below 600 nM. Also, in test [2], the DC50 is at most 600 nM and the Dmax lay in the range of 80 to 100%.

In test [1], `CCc1cccc2cc(O)cc(-c3ncc4c(N5CC6CCC(C5)N6)nc(OC[C@@]56CCCN5[C@H](COC(=O)N5CCN(c7cc([C@H](C(=O)N8C[C@H](O)C[C@H]8C(=O)N[C@@H](C)c8ccc(-c9scnc9C)cc8)C(C)C)on7)CC5)CC6)nc4c3F)c12` [Compound 5] showed a Dmax of 80 to 100% and a DC50 below 600 nM. Further, in test [2], the DC50 was at most 600 nM and the Dmax lay in the range of 60 to 80%.

In test [1], `CCc1cccc2cc(O)cc(-c3ncc4c(N5CC6CCC(C5)N6)nc(OC[C@]56CCCN5[C@@H](COCC(=O)N[C@H](C(=O)N5C[C@H](O)C[C@H]5C(=O)N[C@@H](C)c5ccc(-c7scnc7C)cc5)C(C)(C)C)CC6)nc4c3F)c12` [Compound 1, (2S,4R)-1-[(2S)-2-[[2-[[(3R,8R)-8-[[4-(3,8-diazabicyclo[3.2.1]octan-3-yl)-7-(8-ethyl-3-hydroxy-1-naphthyl)-8-fluoro-pyrido[4,3-d]pyrimidin-2-yl]oxymethyl]-1,2,3,5,6,7-hexahydropyrrolizin-3-yl]methoxy]acetyl]amino]-3,3-dimethyl-butanoyl]-4-hydroxy-N-[(1S)-1-[4-(4-methylthiazol-5-yl)phenyl]ethyl]pyrrolidine-2-carboxamide] registered a Dmax of 80 to 100% and a DC50 of 600 to 1000 nM. In test [2], this molecule had a DC50 above 3000 nM and a Dmax of 20 to 60%.

In test [1], `C#Cc1c(F)ccc2cc(O)cc(-c3ncc4c(N5CC6CCC(C5)N6)nc(OCCN5CCC(CN6CCN(c7cnc(C(=O)N[C@H](C(=O)N8C[C@H](O)C[C@H]8C(=O)N[C@@H](C)c8ccc(-c9scnc9C)cc8)C(C)(C)C)cn7)CC6)CC5)nc4c3F)c12` [Compound 179, 5-{4-[(1-{2-[(4-{3,8-diazabicyclo[3.2.1]octan-3-yl}-7-(8-ethynyl-7-fluoro-3-hydroxynaphthalen-1-yl)-8-fluoropyrido[4,3-d]pyrimidin-2-yl)oxy]ethyl}piperidin-4-yl)methyl]piperazin-1-yl}-N-[(2S)-1-[(2S,4R)-4-hydroxy-2-{[(1S)-1-[4-(4-methyl-1,3-thiazol-5-yl)phenyl]ethyl]carbamoyl}pyrrolidin-1-yl]-3,3-dimethyl-1-oxobutan-2-yl]pyrazine-2-carboxamide] registered a Dmax of 80 to 100% and a DC50 below 600 nM.

On to `CCc1cccc2cc(O)cc(-c3ncc4c(N5CCCCCC5)nc(OC[C@]56CCCN5[C@H](COC(=O)N5CC7(C5)CN(c5cc([C@H](C(=O)N8C[C@H](O)C[C@H]8C(=O)N[C@@H](C)c8ccc(-c9scnc9C)cc8)C(C)C)on5)C7)CC6)nc4c3F)c12` [Compound 283, [(3S,8R)-8-[[4-(azepan-1-yl)-7-(8-ethyl-3-hydroxy-1-naphthyl)-8-fluoro-pyrido[4,3-d]pyrimidin-2-yl]oxymethyl]-1,2,3,5,6,7-hexahydropyrrolizin-3-yl]methyl 6-[5-[(1R)-1-[(2S,4R)-4-hydroxy-2-[[(1S)-1-[4-(4-methylthiazol-5-yl)phenyl]ethyl]carbamoyl]pyrrolidine-1-carbonyl]-2-methyl-propyl]isoxazol-3-yl]-2,6-diazaspiro[3.3]heptane-2-carboxylate], for which, in test [1], the Dmax lay in the range of 80 to 100% and the DC50 was below 600 nM.

In test [1], `CCc1cccc2cc(O)cc(-c3ncc4c(N5CC6CCC(C5)N6)nc(OC[C@]56CCCN5[C@H](CN5CCC(COc7cc([C@H](C(=O)N8C[C@H](O)C[C@H]8C(=O)N[C@@H](C)c8ccc(-c9scnc9C)cc8)C(C)C)on7)CC5)CC6)nc4c3F)c12` [Compound 111, (2S,4R)-1-[(2R)-2-{3-[(1-{[(3S,7aR)-7a-{[(4-{3,8-diazabicyclo[3.2.1]octan-3-yl}-7-(8-ethyl-3-hydroxynaphthalen-1-yl)-8-fluoropyrido[4,3-d]pyrimidin-2-yl)oxy]methyl}-hexahydro-1H-pyrrolizin-3-yl]methyl}piperidin-4-yl)methoxy]-1,2-oxazol-5-yl}-3-methylbutanoyl]-4-hydroxy-N-[(1S)-1-[4-(4-methyl-1,3-thiazol-5-yl)phenyl]ethyl]pyrrolidine-2-carboxamide] had a Dmax of 80 to 100% and a DC50 below 600 nM.

As for `CCc1cccc2cc(O)cc(-c3ncc4c(N5CC6CCC(C5)N6)nc(OC[C@H]5CN(CC6CN(c7cc([C@@H](C(=O)N8C[C@H](O)C[C@H]8C(=O)N[C@@H](C)c8ccc(-c9scnc9C)cc8)C(C)C)on7)C6)CCN5C)nc4c3F)c12` [Compound 181, (2S,4R)-1-[(2S)-2-[3-(3-{[(3R)-3-{[(4-{3,8-diazabicyclo[3.2.1]octan-3-yl}-7-(8-ethyl-3-hydroxynaphthalen-1-yl)-8-fluoropyrido[4,3-d]pyrimidin-2-yl)oxy]methyl}-4-methylpiperazin-1-yl]methyl}azetidin-1-yl)-1,2-oxazol-5-yl]-3-methylbutanoyl]-4-hydroxy-N-[(1S)-1-[4-(4-methyl-1,3-thiazol-5-yl)phenyl]ethyl]pyrrolidine-2-carboxamide], the DC50 in test [1] is above 3000 nM.
